Data from article PMC12436592 (Nature Communications, 2025).
Values joined by “and” are separate entries in the source; they are usually repeats but may differ in a detail not shown here. Equal entries are not always repeated.

Tests used:
hP2X7R [1] = target: T1, hP2X7R (Homo sapiens, UniProt Q99572); assay: Ethidium bromide accumulation in hP2X7R-expressing HEK293 cells; type: cell-based; set-up: expressed in transfected cells; details: for mean % of maximum accumulation / MAX100 (% of maximum accumulation, replicates 1-3): BzATP 6 μM; for IC50: hP2X7R, ethidium bromide accumulation, mean ± SD, triplicate; for ΔΔGexp: relative to UB-ALT-P30, from experimental pIC50 values, T = 298 K; for MAX100 (% of maximum accumulation, replicates 1-3): single replicates
T1 sequence (Q99572 1-595): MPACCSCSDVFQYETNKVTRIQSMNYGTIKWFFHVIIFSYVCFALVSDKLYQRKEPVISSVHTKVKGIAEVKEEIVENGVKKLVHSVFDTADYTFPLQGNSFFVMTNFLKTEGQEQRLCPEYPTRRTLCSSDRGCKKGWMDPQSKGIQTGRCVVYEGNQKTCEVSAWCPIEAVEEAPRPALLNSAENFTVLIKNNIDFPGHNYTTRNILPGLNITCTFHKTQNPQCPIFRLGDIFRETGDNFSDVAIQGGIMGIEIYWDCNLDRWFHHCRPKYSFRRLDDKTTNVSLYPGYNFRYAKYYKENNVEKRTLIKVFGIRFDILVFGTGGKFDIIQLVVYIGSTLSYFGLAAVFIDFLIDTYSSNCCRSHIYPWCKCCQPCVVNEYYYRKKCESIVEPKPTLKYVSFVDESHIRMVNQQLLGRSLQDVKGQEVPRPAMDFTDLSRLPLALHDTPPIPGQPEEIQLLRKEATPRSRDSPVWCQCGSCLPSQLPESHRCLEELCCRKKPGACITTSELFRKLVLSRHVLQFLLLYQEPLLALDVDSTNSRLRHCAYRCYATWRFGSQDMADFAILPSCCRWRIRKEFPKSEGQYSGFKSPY
Method: Human P2X7R-expressing HEK293 cells were cultured in a humidified atmosphere of 5% CO2 at 37 °C in Dulbecco’s Modification of Eagle’s Medium (DMEM; Corning) supplemented with 10% (v/v) fetal bovine serum (Corning) and 1% (v/v) antibiotic–antimycotic (Gibco)[75]. To perform the assay, the DMEM was removed, and the HEK293 cells were washed with 3 mL of 1X DPBS (Dulbecco’s Phosphate-Buffered Saline; Corning). After the removal of DPBS solution, the cells were detached from the dish with 1 mL of trypsin/EDTA (Gibco), and the cells were collected by centrifugation. The cells (density of 2.25 × 10^7) were re-suspended in 4-(2-hydroxyethyl)-1-piperazineethanesulfonic acid (HEPES)-buffered salt solution consisting of 140 mM potassium chloride, 1 mM ethylene diamine tetraacetic acid (EDTA), 5 mM glucose, 20 mM HEPES, and 0.1 mM ethidium bromide (pH 7.4). The vehicles or appropriate range of concentrations of compounds (10 μL, pre-diluted in 10% (v/v) DMSO in DW from 10 mM stock) were added to each well of 96-well black plate (Corning), and 80 μL of the cell suspension was subsequently added to each well. BzATP (10 μL, pre-diluted in DW from 10 mM stock) was then added, and the final assay volume was maintained at 100 μL. After the incubation in 5% CO2 at 37 °C for 2 h, the ethidium dye uptake was detected by measuring the fluorescence (excitation wavelength of 530 nm and emission wavelength of 590 nm) of each well using a CHAMELEON™ Multi-Technology Plate Reader. The antagonistic activities of compounds are expressed as the percentages relative to the maximum accumulation of ethidium bromide observed in the control group with the stimulation of the hP2X7R by an agonist, BzATP. The IC50 values of compounds as antagonists were calculated using nonlinear regression analysis using OriginPro 9.1 software.

hP2X7R [2] = target: T1, hP2X7R; assay: TEVC determination of antagonist binding kinetics in Xenopus oocytes; type: cell-based; set-up: expressed in transfected cells; host or cells: Xenopus laevis oocytes injected with capped cRNA (modified pUC19 vector, T7); details: single replicates
Method: Xenopus laevis frogs were from Nasco International (Fort Atkinson, WI) and kept at the Core Facility Animal Models (CAM) of the Biomedical Center (BMC) of LMU Munich, Germany (Az:4.3.2–5682/LMU/BMC/CAM) in accordance with the EU Animal Welfare Act. Ovaries were surgically extracted (ROB_54-011-AZ 2532.Vet_02-23-166), treated with collagenase (Nordmark, Uetersen, Germany 1.0–1.5 mg/mL, ≥2 at RT) and defolliculated (15-min treatment in Ca^2+-free oocyte Ringer (90 mM NaCl, 1 mM KCl, 2 mM MgCl2, 5 mM HEPES), respectively. 50 nL of cRNA (0.5 µg/µL) were injected using a Nanoject II injector (Science Products, Drummond) and oocytes were kept in ND96 (96 mM NaCl, 2 mM KCl, 1 mM MgCl2, 1 mM CaCl2, 5 mM HEPES, pH 7.4–7.5). The plasmid containing the hP2X7R was linearized with NotI-HF (NEB) and purified with the MinElute Reaction Cleanup Kit (Qiagen, Hilden, Germany). Capped cRNA was synthesized using the mMESSAGE mMACHINE™ T7 Transcription Kit (ThermoFisher Scientific, Schwerte, Germany) and dissolved in nuclease-free water (500 ng/µL). Injected oocytes were allowed to express for at least 36 hours.
Two-electrode voltage clamp recordings were performed at room temperature and a holding potential of −70 mV using a Turbo Tec-05X Amplifier (npi electronic, Tamm, Germany), a magnetic valve system, and CellWorks E 5.5.1 software. Currents were filtered at 1 kHz and digitized at 200 Hz. Electrode resistances were below 1.2 MΩ. […] Recordings were performed in ND96.
After obtaining reproducible agonist-evoked responses, solutions were switched to antagonist-containing recording solutions with and without ATP to determine association rates. Responses following antagonist application were normalized to the preceding, stabilized agonist responses. Dissociation was determined in 1- or 2 min intervals when currents were reduced to <10%. Association curves were fit to the data by the equation % Response = (100-Plateau)*exp(-kobs*Time) + Plateau, where Plateau indicates the response at equilibrium and kobs the experimentally determined on-rate. All data were analyzed using Prism software (GraphPad Software, Inc., Version 8.3.0, San Diego, CA) and are presented as means ± SD from at least three oocytes. […] The final concentration of DMSO in the recording solution was ≤1%.
Supplementary Fig. 10: Kinetics of ligands binding to the hP2X7R measured by TEVC. (A) […]
All data represented as mean ± S.D. with n=3, 7, 7, and 7 f or the experiments performed at 3 nM, 10 nM, 30 nM, and 100 nM […]
(B) Representative current traces for t he activation
(C) On- and off-r at e constants and Ki
Observed on- r at es kobs were determined by fitting the data (Fig. 4H, Supplementary Fig. 10A) to the function: % response = (100- Plateau)*exp(-kobs*time)+Plateau and plotted against the antagonist concentrations to obtain koff according to k obs=kon*F+koff. Assuming a (simplified) 1:1 binding model, of f-r at e constant koff and Ki values were estimated using the previous formulas as well as Ki=koff/kon. […]
determined by Ca2+ imaging (18 nM, Fig. 3B ) and the binding equilibrium reached at each […]
values of UB-MBX-46 c annot reflect an accurate value due to the nearly negligible dissociation on the timescale of the experiment. If k off was estimated based on the IC50 value (IC50 = koff/kon panel D), a more accurate koff value can be obtained. Numbers in square brackets are 95% Confidence Intervals. *values obtained from an extrapolated dose inhibition curve from D . (D) The plateau values, representing the binding equilibrium, were used to generate dose inhibition

[3] = antagonist concentration 100 (unit not given)
[4] = antagonist concentration 1000 (unit not given)
[5] = antagonist concentration 10000 (unit not given)
[6] = antagonist concentration 3.2 (unit not given)
[7] = antagonist concentration 16 (unit not given)
[8] = antagonist concentration 80 (unit not given)
[9] = antagonist concentration 400 (unit not given)
[10] = antagonist concentration 2000 (unit not given)

| Structure (SMILES) | mean % of maximum accumulation (hP2X7R [1]; [5]) | IC50 (hP2X7R [1]) | ΔΔGexp (hP2X7R [1]) | MAX100 (% of maximum accumulation, replicates 1-3) (hP2X7R [1]; [5]) | mean % of maximum accumulation (hP2X7R [1]; [6]) | mean % of maximum accumulation (hP2X7R [1]; [7]) | mean % of maximum accumulation (hP2X7R [1]; [8]) | mean % of maximum accumulation (hP2X7R [1]; [9]) | mean % of maximum accumulation (hP2X7R [1]; [10]) | MAX100 (% of maximum accumulation, replicates 1-3) (hP2X7R [1]; [6]) | MAX100 (% of maximum accumulation, replicates 1-3) (hP2X7R [1]; [7]) | MAX100 (% of maximum accumulation, replicates 1-3) (hP2X7R [1]; [8]) | MAX100 (% of maximum accumulation, replicates 1-3) (hP2X7R [1]; [9]) | MAX100 (% of maximum accumulation, replicates 1-3) (hP2X7R [1]; [10]) | other results |
| --- | --- | --- | --- | --- | --- | --- | --- | --- | --- | --- | --- | --- | --- | --- | --- |
| CC12CC3(C)CC(C)(C1)CC(C(=O)NNc1ccccc1Cl)(C2)C3 [UB-ALT-P37] | 5.192% | > 1000 nM | >1.88 kcal/mol | 17.7966 and 0.7519 and -2.973 |  |  |  |  |  |  |  |  |  |  | mean % of maximum accumulation (hP2X7R [1]; [3]): 69.1292%; mean % of maximum accumulation (hP2X7R [1]; [4]): 66.8307%; MAX100 (% of maximum accumulation, replicates 1-3) (hP2X7R [1]; [3]): 71.3983 and 82.2055 and 53.7838; MAX100 (% of maximum accumulation, replicates 1-3) (hP2X7R [1]; [4]): 82.6271 and 51.3784 and 66.4865 |
| O=C(NNc1ccccc1Cl)C12CC3CC(CC(C3)C1)C2 [UB-MALT-P30] |  |  |  |  |  |  |  |  |  |  |  |  |  |  | on-rate to hP2X7R, Response [%] (hP2X7R [2]; 3 nM, time 2 min): 96.4% and 100% and 92.9%; on-rate to hP2X7R, Response [%] (hP2X7R [2]; 3 nM, time 4 min): 96.4% and 97.5% and 92.9%; on-rate to hP2X7R, Response [%] (hP2X7R [2]; 3 nM, time 6 min): 96.4% and 97.5% and 92.9%; on-rate to hP2X7R, Response [%] (hP2X7R [2]; 10 nM, time 2 min): 93.8% and 78.8% and 87.9% and 77.9% and 84.1% and 80.6% and 76.1%; on-rate to hP2X7R, Response [%] (hP2X7R [2]; 10 nM, time 4 min): 83.3% and 71.2% and 77.8% and 75.3% and 77.2% and 75% and 67.4%; on-rate to hP2X7R, Response [%] (hP2X7R [2]; 10 nM, time 6 min): 77.1% and 65.4% and 72.7% (2×) and 74% and 66.7% and 65.2%; on-rate to hP2X7R, Response [%] (hP2X7R [2]; 10 nM, time 8 min): 58.3% and 61.5% and 69.7% and 72.7% (2×) and 66.7% and 63%; on-rate to hP2X7R, Response [%] (hP2X7R [2]; 10 nM, time 10 min): 45.8% and 57.7% and 67.7% and 72.7% (2×) and 66.7% and 65.2%; on-rate to hP2X7R, Response [%] (hP2X7R [2]; 10 nM, time 12 min): 39.6% and 55.8% and 65.7% and 72.7% (2×) and 66.7% and 65.2%; on-rate to hP2X7R, Response [%] (hP2X7R [2]; 30 nM, time 2 min): 54.3% and 59.3% and 51.2% and 37.5% and 42.9% and 45.7% and 46.9%; on-rate to hP2X7R, Response [%] (hP2X7R [2]; 30 nM, time 4 min): 45.7% and 44.4% and 19.5% and 33.3% (2×) and 34.3%; on-rate to hP2X7R, Response [%] (hP2X7R [2]; 30 nM, time 6 min): 42.4% and 37% and 17.1% and 20.8% and 28.6% and 25.7% and 28.3%; on-rate to hP2X7R, Response [%] (hP2X7R [2]; 30 nM, time 8 min): 40.2% and 33.3% and 14.6% and 20.8% and 23.8% and 22.9% and 22.4%; on-rate to hP2X7R, Response [%] (hP2X7R [2]; 30 nM, time 10 min): 39.1% and 33.3% and 9.8% and 29.2% and 23.8% and 22.9% and 22.4%; on-rate to hP2X7R, Response [%] (hP2X7R [2]; 100 nM, time 2 min): 20% and 4.2% and 3.2% and 8.2% and 20.5% and 17.6% and 21.1%; on-rate to hP2X7R, Response [%] (hP2X7R [2]; 100 nM, time 4 min): 6.7%; on-rate to hP2X7R, Response [%] (hP2X7R [2]; 100 nM, time 6 min): 6.7% and 1.4% and 0% and 2% and 10.8% and 10.6% and 10.5% |
| O=C(NNc1ccccc1Cl)C12C3C4C5C3C1C5C42 (centres unmarked) [UB-ALT-P38] | 7.125% | 430 ± 64 nM | 1.36 ± 1.50 kcal/mol | 12.9482 and 12.3412 and -3.913 | 92.6488% | 90.4406% | 85.6943% | 54.1625% | 8.486% | 94.8207 and 85.2995 and 97.8261 | 88.8446 and 87.4773 and 95 | 92.8287 and 88.3848 and 75.8696 | 70.5179 and 47.1869 and 44.7826 | 13.1474 and 15.7895 and -3.478 |  |
| CC12CC3CC(C)(C1)CC(C(=O)NNc1ccccc1Cl)(C3)C2 [UB-ALT-P36] | -3.752% | 477 ± 170 nM | 1.43 ± 1.93 kcal/mol | -6.86 and -5.723 and 1.326 | 75.2635% | 81.0675% | 68.3254% | 62.0321% | 5.603% | 66.4908 and 84.0361 | 77.5726 and 94.2771 and 71.3528 | 56.9921 and 86.4458 and 61.5385 | 60.1583 and 61.747 and 64.191 | 0.7916 and 7.53 and 8.488 |  |
